Test results taken from paper PMC10004634 (PLOS ONE, 2023).

What was measured:
CDK3 = CDK3 (Homo sapiens, UniProt Q00526); test: biochemical; set-up: KINOMEscan scanMAX competition binding, DNA-tagged kinases, qPCR read-out, percent control at 300 nM; conditions: read-out: Percent control / Acalabrutinib
HIPK1 = HIPK1 (Homo sapiens, UniProt Q86Z02); test: biochemical; set-up: KINOMEscan scanMAX competition binding, DNA-tagged kinases, qPCR read-out, percent control at 300 nM; conditions: read-out: Percent control / Acalabrutinib
NDR2 = target: T1, NDR2 (Homo sapiens, UniProt Q9Y2H1); test: biochemical; set-up: KINOMEscan scanMAX competition binding, DNA-tagged kinases, qPCR read-out, percent control at 300 nM; conditions: read-out: Percent control / Acalabrutinib
T1 construct: gene STK38L
T1 sequence (Q9Y2H1 whole entry): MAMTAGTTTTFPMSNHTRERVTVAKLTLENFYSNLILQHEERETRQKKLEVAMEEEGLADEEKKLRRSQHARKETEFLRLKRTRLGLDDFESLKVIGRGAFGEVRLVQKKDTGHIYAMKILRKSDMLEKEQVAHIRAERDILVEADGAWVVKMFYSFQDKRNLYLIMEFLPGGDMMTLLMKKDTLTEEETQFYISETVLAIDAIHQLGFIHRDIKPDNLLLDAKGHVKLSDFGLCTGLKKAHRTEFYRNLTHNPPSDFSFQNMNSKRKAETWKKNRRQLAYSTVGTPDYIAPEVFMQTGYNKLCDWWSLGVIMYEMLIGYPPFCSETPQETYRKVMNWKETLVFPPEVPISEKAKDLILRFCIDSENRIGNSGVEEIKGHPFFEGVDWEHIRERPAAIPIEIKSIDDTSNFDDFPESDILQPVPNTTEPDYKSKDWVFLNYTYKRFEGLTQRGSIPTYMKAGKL

MAP3K3 = MAP3K3 (Homo sapiens, UniProt Q99759); test: biochemical; set-up: KINOMEscan scanMAX competition binding, DNA-tagged kinases, qPCR read-out, percent control at 300 nM; conditions: read-out: Percent control / Acalabrutinib
Sequence of MAP3K3 (Q99759 whole entry): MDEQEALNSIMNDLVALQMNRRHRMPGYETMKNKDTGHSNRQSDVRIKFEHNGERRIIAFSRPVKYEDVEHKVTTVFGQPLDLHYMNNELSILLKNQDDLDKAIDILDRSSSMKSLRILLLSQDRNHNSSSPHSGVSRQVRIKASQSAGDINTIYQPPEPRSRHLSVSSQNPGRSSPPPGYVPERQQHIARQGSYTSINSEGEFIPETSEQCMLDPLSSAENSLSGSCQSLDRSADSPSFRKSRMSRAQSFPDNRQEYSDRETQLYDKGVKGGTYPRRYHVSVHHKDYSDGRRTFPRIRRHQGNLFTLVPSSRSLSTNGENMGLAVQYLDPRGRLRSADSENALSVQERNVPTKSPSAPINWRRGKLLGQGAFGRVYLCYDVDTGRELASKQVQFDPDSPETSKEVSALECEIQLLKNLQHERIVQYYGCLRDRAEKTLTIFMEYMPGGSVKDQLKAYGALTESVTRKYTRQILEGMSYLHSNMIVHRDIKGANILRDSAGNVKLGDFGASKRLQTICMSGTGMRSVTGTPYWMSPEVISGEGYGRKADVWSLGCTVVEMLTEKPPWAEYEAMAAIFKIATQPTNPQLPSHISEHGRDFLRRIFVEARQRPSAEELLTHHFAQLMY

CDK9 = CDK9 (Homo sapiens, UniProt P50750); test: biochemical; set-up: KINOMEscan scanMAX competition binding, DNA-tagged kinases, qPCR read-out, percent control at 300 nM; conditions: read-out: Percent control / Acalabrutinib
ABL1-nonphosphorylated = target: T2, ABL1-nonphosphorylated (Homo sapiens, UniProt P00519); test: biochemical; set-up: KINOMEscan scanMAX competition binding, DNA-tagged kinases, qPCR read-out, percent control at 300 nM; conditions: read-out: Percent control / Acalabrutinib
T2 construct: nonphosphorylated

TMD8 xenograft tumor = test: Gene set enrichment analysis (GSEA) of TMD8 xenograft microarray data; assay type: in vivo, mouse
TMD8 cells = test: Cell viability assay (CellTiter-Glo); assay type: cell-based; conditions: Homo sapiens, 72 h
Protocol: (§1) After incubation for 72 h at 37°C and 5% CO2/95% air, relative light units (RLU) were measured with the CellTiter-Glo Luminescent Cell Viability Assay (Promega, Madison, WI, USA). […] GraphPad Prism (version 5.01J or 5.04; GraphPad Software, Inc., San Diego, CA, USA) and its base settings were used for initial values and convergence conditions.

U-2932 cells = test: Cell viability assay (CellTiter-Glo); assay type: cell-based; conditions: Homo sapiens, U2932, 72 h
Protocol: as §1

IKK-alpha = target: T3, IKK-alpha (Homo sapiens, UniProt O15111); test: biochemical; set-up: KINOMEscan scanMAX competition binding, DNA-tagged kinases, qPCR read-out, percent control at 300 nM; conditions: read-out: Percent control / Zanubrutinib
T3 construct: gene CHUK
T3 sequence (O15111 whole entry): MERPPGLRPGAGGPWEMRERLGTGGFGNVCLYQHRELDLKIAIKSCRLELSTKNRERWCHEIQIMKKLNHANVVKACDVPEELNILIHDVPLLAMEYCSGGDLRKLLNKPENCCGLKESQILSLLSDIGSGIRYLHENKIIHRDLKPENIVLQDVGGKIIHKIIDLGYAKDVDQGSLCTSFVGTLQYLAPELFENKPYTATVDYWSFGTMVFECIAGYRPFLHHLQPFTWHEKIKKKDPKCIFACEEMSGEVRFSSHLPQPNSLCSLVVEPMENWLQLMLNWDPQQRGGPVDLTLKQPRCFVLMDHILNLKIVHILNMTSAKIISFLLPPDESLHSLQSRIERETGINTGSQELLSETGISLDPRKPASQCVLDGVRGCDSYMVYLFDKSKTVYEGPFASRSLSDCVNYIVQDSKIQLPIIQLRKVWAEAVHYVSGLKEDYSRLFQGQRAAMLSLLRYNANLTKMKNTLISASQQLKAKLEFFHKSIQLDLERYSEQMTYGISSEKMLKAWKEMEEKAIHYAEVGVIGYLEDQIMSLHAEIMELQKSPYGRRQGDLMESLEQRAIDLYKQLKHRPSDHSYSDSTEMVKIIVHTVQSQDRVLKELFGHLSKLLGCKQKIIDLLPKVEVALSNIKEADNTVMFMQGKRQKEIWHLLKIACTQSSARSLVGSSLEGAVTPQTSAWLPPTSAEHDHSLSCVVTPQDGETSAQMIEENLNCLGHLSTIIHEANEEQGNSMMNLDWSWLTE

CASK = CASK (Homo sapiens, UniProt O14936); test: biochemical; set-up: KINOMEscan scanMAX competition binding, DNA-tagged kinases, qPCR read-out, percent control at 300 nM; conditions: read-out: Percent control / Zanubrutinib
Sequence of CASK (O14936 whole entry): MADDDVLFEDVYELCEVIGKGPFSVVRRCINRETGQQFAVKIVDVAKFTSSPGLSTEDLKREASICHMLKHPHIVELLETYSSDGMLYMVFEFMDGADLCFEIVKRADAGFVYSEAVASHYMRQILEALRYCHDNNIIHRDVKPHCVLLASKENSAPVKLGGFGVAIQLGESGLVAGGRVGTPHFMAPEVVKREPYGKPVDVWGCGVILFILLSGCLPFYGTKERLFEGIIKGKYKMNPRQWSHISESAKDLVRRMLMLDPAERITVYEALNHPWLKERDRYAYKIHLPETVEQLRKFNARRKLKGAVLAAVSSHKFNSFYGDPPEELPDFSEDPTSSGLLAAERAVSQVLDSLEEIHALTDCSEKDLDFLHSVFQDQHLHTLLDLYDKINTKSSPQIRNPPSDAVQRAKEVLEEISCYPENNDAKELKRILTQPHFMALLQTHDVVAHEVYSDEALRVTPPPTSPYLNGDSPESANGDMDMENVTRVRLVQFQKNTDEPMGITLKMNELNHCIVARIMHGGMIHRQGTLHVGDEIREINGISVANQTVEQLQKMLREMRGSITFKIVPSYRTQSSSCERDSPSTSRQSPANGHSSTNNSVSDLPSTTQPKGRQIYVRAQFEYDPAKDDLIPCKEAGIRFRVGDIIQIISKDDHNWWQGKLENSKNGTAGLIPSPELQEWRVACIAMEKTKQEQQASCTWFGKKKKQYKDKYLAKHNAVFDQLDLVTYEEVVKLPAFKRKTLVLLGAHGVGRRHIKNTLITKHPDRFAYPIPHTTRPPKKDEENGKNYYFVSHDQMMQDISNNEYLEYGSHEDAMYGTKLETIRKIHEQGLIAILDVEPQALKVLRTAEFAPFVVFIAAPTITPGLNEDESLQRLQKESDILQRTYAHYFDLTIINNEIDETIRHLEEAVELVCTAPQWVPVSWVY

CSNK2A2 = CSNK2A2 (Homo sapiens, UniProt P19784); test: biochemical; set-up: KINOMEscan scanMAX competition binding, DNA-tagged kinases, qPCR read-out, percent control at 300 nM; conditions: read-out: Percent control / Zanubrutinib
Sequence of CSNK2A2 (P19784 whole entry): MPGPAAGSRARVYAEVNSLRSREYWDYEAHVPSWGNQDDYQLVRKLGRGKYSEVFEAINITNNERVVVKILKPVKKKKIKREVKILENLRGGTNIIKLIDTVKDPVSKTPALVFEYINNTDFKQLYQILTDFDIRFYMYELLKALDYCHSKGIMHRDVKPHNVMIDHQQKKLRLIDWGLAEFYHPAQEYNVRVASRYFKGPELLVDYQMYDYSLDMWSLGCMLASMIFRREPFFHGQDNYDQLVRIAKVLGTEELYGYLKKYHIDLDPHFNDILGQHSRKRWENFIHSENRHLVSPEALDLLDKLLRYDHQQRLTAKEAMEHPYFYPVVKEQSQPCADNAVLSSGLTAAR

CDKL5 = CDKL5 (Homo sapiens, UniProt O76039); test: biochemical; set-up: KINOMEscan scanMAX competition binding, DNA-tagged kinases, qPCR read-out, percent control at 300 nM; conditions: read-out: Percent control / Zanubrutinib
Sequence of CDKL5 (O76039 whole entry): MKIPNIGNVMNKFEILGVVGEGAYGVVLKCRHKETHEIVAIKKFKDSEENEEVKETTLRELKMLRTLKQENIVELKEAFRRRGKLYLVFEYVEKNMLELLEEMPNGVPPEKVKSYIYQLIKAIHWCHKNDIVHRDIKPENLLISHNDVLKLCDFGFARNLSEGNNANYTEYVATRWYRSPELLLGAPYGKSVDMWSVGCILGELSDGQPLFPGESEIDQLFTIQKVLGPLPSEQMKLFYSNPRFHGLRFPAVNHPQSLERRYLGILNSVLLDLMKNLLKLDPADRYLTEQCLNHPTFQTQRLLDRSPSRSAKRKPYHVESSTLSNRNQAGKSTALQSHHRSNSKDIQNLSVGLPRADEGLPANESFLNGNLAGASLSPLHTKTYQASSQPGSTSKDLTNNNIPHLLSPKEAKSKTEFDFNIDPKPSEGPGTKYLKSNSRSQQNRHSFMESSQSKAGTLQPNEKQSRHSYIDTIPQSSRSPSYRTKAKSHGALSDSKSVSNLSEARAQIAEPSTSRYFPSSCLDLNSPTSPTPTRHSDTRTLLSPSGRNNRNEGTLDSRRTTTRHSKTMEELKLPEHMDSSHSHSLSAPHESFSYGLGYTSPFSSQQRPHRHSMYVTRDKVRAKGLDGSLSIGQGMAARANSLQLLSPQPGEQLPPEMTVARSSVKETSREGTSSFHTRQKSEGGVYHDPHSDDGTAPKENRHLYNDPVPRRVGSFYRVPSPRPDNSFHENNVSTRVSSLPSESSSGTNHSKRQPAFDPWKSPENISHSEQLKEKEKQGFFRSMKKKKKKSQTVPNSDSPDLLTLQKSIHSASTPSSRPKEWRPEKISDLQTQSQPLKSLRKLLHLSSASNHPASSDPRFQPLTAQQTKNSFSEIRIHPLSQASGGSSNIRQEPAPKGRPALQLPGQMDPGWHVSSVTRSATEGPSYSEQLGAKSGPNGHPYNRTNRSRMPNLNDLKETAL

PRKG2 = PRKG2 (Homo sapiens, UniProt Q13237); test: biochemical; set-up: KINOMEscan scanMAX competition binding, DNA-tagged kinases, qPCR read-out, percent control at 300 nM; conditions: read-out: Percent control / Zanubrutinib
PLK1 = PLK1 (Homo sapiens, UniProt P53350); test: biochemical; set-up: KINOMEscan scanMAX competition binding, DNA-tagged kinases, qPCR read-out, percent control at 300 nM; conditions: read-out: Percent control / Zanubrutinib
MEK4 = target: T4, MEK4 (Homo sapiens, UniProt P45985); test: biochemical; set-up: KINOMEscan scanMAX competition binding, DNA-tagged kinases, qPCR read-out, percent control at 300 nM; conditions: read-out: Percent control / Zanubrutinib
T4 construct: gene MAP2K4

MYLK2 = MYLK2 (Homo sapiens, UniProt Q9H1R3); test: biochemical; set-up: KINOMEscan scanMAX competition binding, DNA-tagged kinases, qPCR read-out, percent control at 300 nM; conditions: read-out: Percent control / Zanubrutinib
Sequence of MYLK2 (Q9H1R3 whole entry): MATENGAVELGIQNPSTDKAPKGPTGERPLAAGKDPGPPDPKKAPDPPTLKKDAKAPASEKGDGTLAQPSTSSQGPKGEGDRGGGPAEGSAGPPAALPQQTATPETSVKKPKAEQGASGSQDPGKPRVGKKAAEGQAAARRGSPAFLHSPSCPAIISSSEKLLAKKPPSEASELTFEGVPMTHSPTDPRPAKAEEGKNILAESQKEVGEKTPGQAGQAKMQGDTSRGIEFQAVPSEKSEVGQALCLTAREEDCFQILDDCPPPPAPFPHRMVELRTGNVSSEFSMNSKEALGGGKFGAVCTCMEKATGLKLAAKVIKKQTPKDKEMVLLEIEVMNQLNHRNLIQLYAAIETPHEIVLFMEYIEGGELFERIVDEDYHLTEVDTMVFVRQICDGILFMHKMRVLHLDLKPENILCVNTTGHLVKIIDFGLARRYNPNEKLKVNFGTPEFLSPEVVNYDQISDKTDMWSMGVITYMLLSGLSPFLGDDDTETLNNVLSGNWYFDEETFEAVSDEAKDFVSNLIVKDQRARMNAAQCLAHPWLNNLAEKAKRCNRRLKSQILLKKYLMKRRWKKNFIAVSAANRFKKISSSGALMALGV

[1] = GSEA report for tirabrutinib 10, 10 mg/kg vs vehicle
[2] = GSEA report for vehicle, tirabrutinib 10 mg/kg vs vehicle
[3] = at 100 nM, read-out: maximum growth inhibition rate
[4] = read-out: IC50 of growth inhibition

Sequence of CDK3 (Q00526 whole entry): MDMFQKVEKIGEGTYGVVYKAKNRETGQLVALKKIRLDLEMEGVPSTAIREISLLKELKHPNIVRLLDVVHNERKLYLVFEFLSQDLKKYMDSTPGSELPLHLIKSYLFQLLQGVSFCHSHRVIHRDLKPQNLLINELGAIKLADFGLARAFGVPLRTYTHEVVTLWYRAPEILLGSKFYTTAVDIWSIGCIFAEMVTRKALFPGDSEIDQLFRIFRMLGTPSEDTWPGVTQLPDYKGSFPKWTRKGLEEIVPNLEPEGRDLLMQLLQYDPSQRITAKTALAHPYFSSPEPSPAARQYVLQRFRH

CC#CC(=O)N1CCC[C@H]1c1nc(-c2ccc(C(=O)Nc3ccccn3)cc2)c2c(N)nccn12 [Acalabrutinib]
remaining binding at 0.3 µM (CDK3): 88%
remaining binding at 0.3 µM (HIPK1): 85%
remaining binding at 0.3 µM (NDR2): 99%
remaining binding at 0.3 µM (MAP3K3): 86%
remaining binding at 0.3 µM (CDK9): 94%
remaining binding at 0.3 µM (ABL1-nonphosphorylated): 87%

CC#CC(=O)N1CC[C@@H](n2c(=O)n(-c3ccc(Oc4ccccc4)cc3)c3c(N)ncnc32)C1 [Tirabrutinib]
IRF4, MYC, and mTORC1 pathway-related genes (GSEA) (TMD8 xenograft tumor; 10 mg/kg vs vehicle): downregulated
NES DESCARTES_FETAL_LUNG_LYMPHOID_CELLS (TMD8 xenograft tumor; [1]): 2.406
NES DESCARTES_FETAL_STOMACH_LYMPHOID_CELLS (TMD8 xenograft tumor; [1]): 2.57
NES GOBP_CYTOKINE_PRODUCTION_INVOLVED_IN_INFLAMMATORY_RESPONSE (TMD8 xenograft tumor; [1]): 2.462
NES MORI_PLASMA_CELL_DN (TMD8 xenograft tumor; [1]): 2.456
NES REACTOME_GENERATION_OF_SECOND_MESSENGER_MOLECULES (TMD8 xenograft tumor; [1]): 2.407
NES ELVIDGE_HIF1A_TARGETS_DN (TMD8 xenograft tumor; [2]): -2.295
NES GSE29614_CTRL_VS_DAY7_TIV_FLU_VACCINE_PBMC_DN (TMD8 xenograft tumor; [2]): -2.25
NES MENSE_HYPOXIA_UP (TMD8 xenograft tumor; [2]): -2.505
NES QI_HYPOXIA (TMD8 xenograft tumor; [2]): -2.398
NES TSANG_PBMC_FLUVIRIN_PANDEMRIX_ADULT_CORR_WITH_CELL_FREQ_CD27HI_CD38HI_CD20_NEG_PLASMABLASTS_AND_CD38PLUS_OF_IGD_CD27PLUS_MEM_B_CELLS_7DY_POSITIVE (TMD8 xenograft tumor; [2]): -2.3945
inhibition at 0.1 µM (TMD8 cells; [3]): 98.6%
IC50 (TMD8 cells; [4]): 3.59 nM
inhibition at 0.1 µM (U-2932 cells; [3]): 30.8%
IC50 (U-2932 cells; [4]): 27.6 nM

C=CC(=O)N1CCC([C@@H]2CCNc3c(C(N)=O)c(-c4ccc(Oc5ccccc5)cc4)nn32)CC1 [Zanubrutinib]
remaining binding at 0.3 µM (IKK-alpha): 84%
remaining binding at 0.3 µM (CASK): 72%
remaining binding at 0.3 µM (CSNK2A2): 100%
remaining binding at 0.3 µM (CDKL5): 100%
remaining binding at 0.3 µM (PRKG2): 85%
remaining binding at 0.3 µM (PLK1): 100%
remaining binding at 0.3 µM (MEK4): 93%
remaining binding at 0.3 µM (MYLK2): 96%
